The results in this text go back to PubChem BioAssay (NCI).

Each structure is given as a SMILES string.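 Cultured in 96-well plates, cells were exposed to test compound for 48 hours across five concentrations. Abbreviation: GI50, concentration required for 50% inhibition of growth. TGI: concentration producing complete growth inhibition.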

The first experiment deals with SK-MEL-28 melanoma. The experiment is described as follows: NCI-60 cell line screen, 48 h.
`NS(=O)(=O)c1cc2c(cc1Cl)NC(C(=O)c1cc(=O)c3ccc(O)cc3o1)=NS2(=O)=O` yielded a TGI above 100 µM.
For the compound `CC(=O)OCC(=O)[C@@]1(O)CC[C@H]2[C@@H]3CCC4=CC(=O)[C@H](C)C[C@]4(C)[C@H]3[C@@H](O)C[C@@]21C`, the TGI was above 100 µM.
Still for that read-out and setting: for `O=C(NO)c1ccc([N+](=O)[O-])cc1` the value was above 100 µM; for `Cc1c(C#N)c2nnn(C)c(=O)n2c1-c1ccccc1`, above 100 µM.

Another experiment deals with M14 melanoma. Description: NCI-60 cell line screen, 48 h.
In turn, `Fc1c(F)c(C(F)(F)F)c(F)c(F)c1N/N=C\c1c[nH]c2ccccc12` had a TGI of 4.21 µM.
As to `COc1cc2c(/C=C3/C(=O)Nc4ccc(Cl)cc43)c(Cl)n(Cc3ccccc3)c2cc1C`, the TGI was found to be 18.2 µM.
Take `O=C(O)C(=C\c1ccc2c(c1)OCO2)/C(=C/c1ccc2c(c1)OCO2)C(=O)O`: the TGI was above 100 µM.
As to `COc1ccc(-c2ccc(-c3ccc(C(=N)N)nc3)s2)cc1`, the GI50 was 1.8 µM and the TGI was found to be 3.35 µM.
In the same order, the values of `COc1ccc2c(c1)CC[C@@H]1[C@@H]2CC[C@]2(C)C(=O)C3(CCCCC3)C[C@@H]12` are above 100 µM and above 100 µM.
Regarding `NS(=O)(=O)c1cc2c(cc1Cl)NC(C(=O)c1cc(=O)c3ccc(O)cc3o1)=NS2(=O)=O`, the TGI was above 100 µM.
`CC(=O)OCC(=O)[C@@]1(O)CC[C@H]2[C@@H]3CCC4=CC(=O)[C@H](C)C[C@]4(C)[C@H]3[C@@H](O)C[C@@]21C`: the TGI is above 100 µM.
In turn, `O=C(NO)c1ccc([N+](=O)[O-])cc1` yielded a TGI above 100 µM.
As to `Cc1c(C#N)c2nnn(C)c(=O)n2c1-c1ccccc1`, the TGI was above 100 µM.

The next experiment has as its system NCI-H460 lung. Description: NCI-60 cell line screen, 48 h.
`Fc1c(F)c(C(F)(F)F)c(F)c(F)c1N/N=C\c1c[nH]c2ccccc12` yielded a TGI of 3.93 µM.
Still for that read-out and setting: for `COc1cc2c(/C=C3/C(=O)Nc4ccc(Cl)cc43)c(Cl)n(Cc3ccccc3)c2cc1C` the value was above 100 µM; for `O=C(O)C(=C\c1ccc2c(c1)OCO2)/C(=C/c1ccc2c(c1)OCO2)C(=O)O`, above 100 µM.
Take `COc1ccc(-c2ccc(-c3ccc(C(=N)N)nc3)s2)cc1`: the GI50 is 0.524 µM and the TGI is 1.82 µM.
In the same order, the values of `N#CC(C#N)=CN1CCN(C(=O)c2ccco2)C1=S` are 3.29 µM and above 100 µM.
Regarding `NS(=O)(=O)c1cc2c(cc1Cl)NC(C(=O)c1cc(=O)c3ccc(O)cc3o1)=NS2(=O)=O`, the TGI is above 100 µM.
In turn, `CC(=O)OCC(=O)[C@@]1(O)CC[C@H]2[C@@H]3CCC4=CC(=O)[C@H](C)C[C@]4(C)[C@H]3[C@@H](O)C[C@@]21C` came in with a TGI above 100 µM.
Same read-out and setting: next, `O=C(NO)c1ccc([N+](=O)[O-])cc1`: above 100 µM.
The same measure, in the same setting: for `Cc1c(C#N)c2nnn(C)c(=O)n2c1-c1ccccc1` the value was above 100 µM.

The next experiment has as its system PC-3 prostate. Description: NCI-60 cell line screen, 48 h.
Compound `Fc1c(F)c(C(F)(F)F)c(F)c(F)c1N/N=C\c1c[nH]c2ccccc12` registered a TGI of 8.01 µM.
Regarding `COc1cc2c(/C=C3/C(=O)Nc4ccc(Cl)cc43)c(Cl)n(Cc3ccccc3)c2cc1C`, the TGI amounted to 22.2 µM.
For `O=C(O)C(=C\c1ccc2c(c1)OCO2)/C(=C/c1ccc2c(c1)OCO2)C(=O)O`, the TGI is above 100 µM.
For the compound `COc1ccc(-c2ccc(-c3ccc(C(=N)N)nc3)s2)cc1`, the GI50 is 1.68 µM and the TGI amounted to 3.31 µM.
Turning to `N#CC(C#N)=CN1CCN(C(=O)c2ccco2)C1=S`, the GI50 is 17.3 µM and the TGI is above 100 µM.
The like results for `COc1ccc2c(c1)CC[C@@H]1[C@@H]2CC[C@]2(C)C(=O)C3(CCCCC3)C[C@@H]12` were, in that order, above 100 µM and above 100 µM.
`Cc1c(C#N)c2nnn(C)c(=O)n2c1-c1ccccc1` registered a TGI above 100 µM.

The next experiment concerns MDA-MB-231 breast. Description: NCI-60 cell line screen, 48 h.
In turn, `Fc1c(F)c(C(F)(F)F)c(F)c(F)c1N/N=C\c1c[nH]c2ccccc12` yielded a TGI of 12.7 µM.
The same measure, in the same setting: for `COc1cc2c(/C=C3/C(=O)Nc4ccc(Cl)cc43)c(Cl)n(Cc3ccccc3)c2cc1C` the value was 6.04 µM.
Regarding `COc1ccc(-c2ccc(-c3ccc(C(=N)N)nc3)s2)cc1`, the GI50 was 1.75 µM and the TGI is 3.28 µM.
Turning to `N#CC(C#N)=CN1CCN(C(=O)c2ccco2)C1=S`, the GI50 was 2.92 µM and the TGI was 17.3 µM.
In the same order, the values of `COc1ccc2c(c1)CC[C@@H]1[C@@H]2CC[C@]2(C)C(=O)C3(CCCCC3)C[C@@H]12` are above 100 µM and above 100 µM.
Regarding `Cc1c(C#N)c2nnn(C)c(=O)n2c1-c1ccccc1`, the TGI is above 100 µM.

For another experiment, the system named is TK-10 renal. The experiment is described as follows: NCI-60 cell line screen, 48 h.
In turn, `Fc1c(F)c(C(F)(F)F)c(F)c(F)c1N/N=C\c1c[nH]c2ccccc12` returned a TGI of 15.6 µM.
Compound `COc1cc2c(/C=C3/C(=O)Nc4ccc(Cl)cc43)c(Cl)n(Cc3ccccc3)c2cc1C` came in with a TGI of 3.76 µM.
In turn, `O=C(O)C(=C\c1ccc2c(c1)OCO2)/C(=C/c1ccc2c(c1)OCO2)C(=O)O` came in with a TGI above 100 µM.
With `COc1ccc(-c2ccc(-c3ccc(C(=N)N)nc3)s2)cc1`, the GI50 was 1.89 µM and the TGI came out at 3.54 µM.
Regarding `N#CC(C#N)=CN1CCN(C(=O)c2ccco2)C1=S`, the GI50 is 4.62 µM and the TGI worked out at 32.7 µM.
In the same order, the values of `COc1ccc2c(c1)CC[C@@H]1[C@@H]2CC[C@]2(C)C(=O)C3(CCCCC3)C[C@@H]12` are above 100 µM and above 100 µM.
The compound `NS(=O)(=O)c1cc2c(cc1Cl)NC(C(=O)c1cc(=O)c3ccc(O)cc3o1)=NS2(=O)=O` yielded a TGI above 100 µM.
The same measure, in the same setting: next, `CC(=O)OCC(=O)[C@@]1(O)CC[C@H]2[C@@H]3CCC4=CC(=O)[C@H](C)C[C@]4(C)[C@H]3[C@@H](O)C[C@@]21C`: above 100 µM; `O=C(NO)c1ccc([N+](=O)[O-])cc1`: above 100 µM; `Cc1c(C#N)c2nnn(C)c(=O)n2c1-c1ccccc1`: above 100 µM.
